Reference: PubChem BioAssay AID248 (DTP/NCI, 2004)
“And” between values parts separate entries of the source, which are not always exact repeats. Equal entries are not always repeated. Toxic doses and inconclusive results are not listed. No stated cut-off is given here; in the data, active means T/C of 150% or more; inactive means T/C below 125%.

Test system: L1210 leukemia ip in BDF1 mice, survival T/C
Assay: NCI In Vivo Anticancer Drug Screen. Data for tumor model L1210 Leukemia (intraperitoneal) in B6D2F1 (BDF1) mice
Details: endpoint: mean survival time, higher = longer survival
Summary of the method: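 Antitumor effect is assessed in tumor-bearing animals. Survival in the compound arm is compared with a vehicle-dosed control arm and expressed as their quotient.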

[1] = dose: 100.0 mg/kg/injection, schedule: Q01DX009 (ip), vehicle: saline
[2] = dose: 100.0 mg/kg/injection, schedule: Q04DX003 (ip), vehicle: saline
[3] = dose: 200.0 mg/kg/injection, schedule: Q04DX003 (ip), vehicle: saline
[4] = dose: 100.0 mg/kg/injection, schedule: Q01DX009 (ip), vehicle: Klucel (hydroxypropylcellulose) (HPC)
[5] = dose: 100.0 mg/kg/injection, schedule: Q04DX003 (ip), vehicle: Klucel (hydroxypropylcellulose) (HPC)
[6] = dose: 200.0 mg/kg/injection, schedule: Q01DX009 (ip), vehicle: Klucel (hydroxypropylcellulose) (HPC)
[7] = dose: 200.0 mg/kg/injection, schedule: Q04DX003 (ip), vehicle: Klucel (hydroxypropylcellulose) (HPC)
[8] = dose: 400.0 mg/kg/injection, schedule: Q01DX009 (ip), vehicle: Klucel (hydroxypropylcellulose) (HPC)
[9] = dose: 400.0 mg/kg/injection, schedule: Q04DX003 (ip), vehicle: Klucel (hydroxypropylcellulose) (HPC)
[10] = dose: 100.0 mg/kg/injection, schedule: Q01DX001 (ip), vehicle: saline
[11] = dose: 200.0 mg/kg/injection, schedule: Q01DX001 (ip), vehicle: saline
[12] = dose: 100.0 mg/kg/injection, schedule: Q04DX002 (ip), vehicle: Klucel (hydroxypropylcellulose) (HPC)
[13] = dose: 200.0 mg/kg/injection, schedule: Q04DX002 (ip), vehicle: Klucel (hydroxypropylcellulose) (HPC)
[14] = dose: 100.0 mg/kg/injection, schedule: Q01DX001 (ip), vehicle: carboxymethylcellulose (CMC)
[15] = dose: 200.0 mg/kg/injection, schedule: Q01DX001 (ip), vehicle: carboxymethylcellulose (CMC)
[16] = dose: 400.0 mg/kg/injection, schedule: Q01DX001 (ip), vehicle: carboxymethylcellulose (CMC)
[17] = dose: 50.0 mg/kg/injection, schedule: Q01DX009 (ip), vehicle: saline
[18] = dose: 50.0 mg/kg/injection, schedule: Q01DX001 (ip), vehicle: carboxymethylcellulose (CMC)
[19] = dose: 50.0 mg/kg/injection, schedule: Q01DX001 (ip), vehicle: saline
[20] = dose: 400.0 mg/kg/injection, schedule: Q01DX001 (ip), vehicle: saline

Measured: T/C

Cc1ccc(N=C=O)cc1[N+](=O)[O-]
inactive: dose: 100.0 mg/kg/injection, schedule: Q01DX009 (ip), vehicle: gum acacia 100 % of control | dose: 100.0 mg/kg/injection, schedule: Q04DX003 (ip), vehicle: gum acacia 98 % of control | dose: 200.0 mg/kg/injection, schedule: Q01DX009 (ip), vehicle: gum acacia 89 % of control | dose: 200.0 mg/kg/injection, schedule: Q04DX003 (ip), vehicle: gum acacia 101 % of control | dose: 400.0 mg/kg/injection, schedule: Q01DX009 (ip), vehicle: gum acacia 94 % of control | dose: 400.0 mg/kg/injection, schedule: Q04DX003 (ip), vehicle: gum acacia 90 % of control

N=C(N)SCCN1CCCCC1
inactive: dose: 75.0 mg/kg/injection, schedule: Q01DX001 (ip), vehicle: acetone 102 % of control | dose: 150.0 mg/kg/injection, schedule: Q01DX001 (ip), vehicle: acetone 100 % of control

CCOC(=O)Cc1c(C)[nH]c2c(C)ccc(C)c12
inactive: dose: 5.0 mg/kg/injection, schedule: Q01DX001 (ip), vehicle: other 94 % of control | dose: 10.0 mg/kg/injection, schedule: Q01DX001 (ip), vehicle: other 91 % of control | dose: 20.0 mg/kg/injection, schedule: Q01DX001 (ip), vehicle: other 105 % of control | dose: 40.0 mg/kg/injection, schedule: Q01DX001 (ip), vehicle: other 96 % of control | dose: 80.0 mg/kg/injection, schedule: Q01DX001 (ip), vehicle: other 100 % of control

N=C(N)SCCCN
inactive: [1] 108 % of control | [2] 101 % of control | [3] 100 % of control

O=C(O)C1=C(C2CCCCC2)C(=O)c2ccccc21
inactive: dose: 75.0 mg/kg/injection, schedule: Q01DX001 (ip), vehicle: other 112 % of control | dose: 150.0 mg/kg/injection, schedule: Q01DX001 (ip), vehicle: other 93 % of control | dose: 300.0 mg/kg/injection, schedule: Q01DX001 (ip), vehicle: other 102 % of control

CN(C)c1ccc(C=NCCCO)cc1
inactive: dose: 100.0 mg/kg/injection, schedule: Q04DX002 (ip), vehicle: saline with Tween-80 92 % of control | dose: 200.0 mg/kg/injection, schedule: Q04DX002 (ip), vehicle: saline with Tween-80 103 % of control

Cc1ccc(CNc2ccc(Br)cc2)cc1
inactive: [4] 96 % of control | [5] 101 % of control | [6] 99 % of control | [7] 102 % of control | [8] 94 % of control | [9] 101 % of control

CC(=O)OCCC[P+](c1ccccc1)(c1ccccc1)c1ccccc1
inactive: [10] 102 % of control | [11] 110 % of control

Cc1ccc(NC(=O)COc2ccc(Cl)cc2Cl)cc1NC(=O)COc1ccc(Cl)cc1Cl
inactive: [12] 89 % of control | [13] 92 % of control | dose: 400.0 mg/kg/injection, schedule: Q04DX002 (ip), vehicle: Klucel (hydroxypropylcellulose) (HPC) 100 % of control

Cc1c([N+](=O)[O-])cc(NC(=O)/C=C\C(=O)O)cc1[N+](=O)[O-]
inactive: dose: 100.0 mg/kg/injection, schedule: Q04DX003 (ip), vehicle: saline with Tween-80 113 % of control | dose: 200.0 mg/kg/injection, schedule: Q04DX003 (ip), vehicle: saline with Tween-80 113 % of control | dose: 400.0 mg/kg/injection, schedule: Q04DX003 (ip), vehicle: saline with Tween-80 109 % of control

CC1=C/C(=N/NC(N)=O)CC(C)C1 (stereo unspecified)
inactive: [2] 100 % of control | [3] 98 % of control | dose: 400.0 mg/kg/injection, schedule: Q04DX003 (ip), vehicle: saline 97 % of control

NNC(=O)CNc1ccc(F)c(F)c1
inactive: [12] 104 % of control | [13] 108 % of control

CCOC(=O)CCCN(c1ccccc1)S(=O)(=O)c1ccc(C)cc1
inactive: [14] 93 % of control | [15] 96 % of control | [16] 107 % of control

NCCSC(c1ccccc1)(c1ccccc1)c1ccccc1
inactive: dose: 25.0 mg/kg/injection, schedule: Q01DX009 (ip), vehicle: saline 94 % of control | [17] 103 % of control | [1] 107 % of control

CC(C)(C)C1CCC2(CC1)CCN(N1CCCCCC1)CC2
inactive: [18] 101 % of control | [14] 111 % of control | [15] 95 % of control | [16] 103 % of control

Cc1cc2c(cc1C)N(C(=O)CN1CCSCC1)CC(=O)N2
inactive: dose: 75.0 mg/kg/injection, schedule: Q01DX001 (ip), vehicle: saline 107 % of control | dose: 75.0 mg/kg/injection, schedule: Q04DX003 (ip), vehicle: saline 93 % of control | dose: 150.0 mg/kg/injection, schedule: Q01DX001 (ip), vehicle: saline 98 % of control | dose: 150.0 mg/kg/injection, schedule: Q04DX003 (ip), vehicle: saline 94 % of control | dose: 300.0 mg/kg/injection, schedule: Q01DX001 (ip), vehicle: saline 109 % of control | dose: 300.0 mg/kg/injection, schedule: Q04DX003 (ip), vehicle: saline 91 % of control

CCOc1ccc([N+](=O)[O-])cn1
inactive: [4] 101 % of control | [5] 93 % of control | [6] 102 % of control | [7] 104 % of control | [8] 106 % of control | [9] 93 % of control

Nc1cc(=O)[nH]c(=S)n1-c1ccc(Br)cc1
inactive: [19] 93 % of control | [10] 102 % of control | [11] 93 % of control | [20] 108 % of control

[CH3][Sn]([CH3])([CH3])[Cl]
inactive: dose: 0.12 mg/kg/injection, schedule: Q04DX002 (ip), vehicle: saline 108 % of control | dose: 0.25 mg/kg/injection, schedule: Q04DX002 (ip), vehicle: saline 105 % of control | dose: 0.5 mg/kg/injection, schedule: Q04DX002 (ip), vehicle: saline 108 % of control

O=C(CCCC(=O)NNC(=O)NC(=O)C(Cl)(Cl)Cl)NNC(=O)NC(=O)C(Cl)(Cl)Cl
inactive: [19] 108 % of control | [10] 96 % of control | [11] 102 % of control | [20] 102 % of control

CC(=O)N(C)c1ccc(NC(=O)c2c(Br)c(Br)c(Br)c(Br)c2C(=O)O)cc1
inactive: [4] 98 % of control | [6] 89 % of control | [8] 105 % of control

O=C(Nc1ccc(Cl)cc1)C(O)C(O)C(O)C(O)CO (stereo unspecified)
inactive: [17] 100 % of control | [1] 103 % of control | dose: 200.0 mg/kg/injection, schedule: Q01DX009 (ip), vehicle: saline 100 % of control

CCCCCCCCCCN(CCCCCCCCCC)C(C)C(=O)c1ccc2cc(Br)c3ccccc3c2c1 (stereo unspecified)
inactive: dose: 55.0 mg/kg/injection, schedule: Q01DX Z (ip), vehicle: methylcellulose (MC) 93 % of control | dose: 83.0 mg/kg/injection, schedule: Q01DX Z (ip), vehicle: methylcellulose (MC) 100 % of control | dose: 125.0 mg/kg/injection, schedule: Q01DX Z (ip), vehicle: methylcellulose (MC) 93 % of control

O=C(Nc1ccc(Cl)cc1)Nc1ccc(Cl)c(C(F)(F)F)c1
inactive: [14] 108 % of control | [15] 111 % of control | [16] 111 % of control

Cc1ccc(/C=C/c2ccccn2)cc1
inactive: [18] 100 % of control | dose: 50.0 mg/kg/injection, schedule: Q04DX003 (ip), vehicle: carboxymethylcellulose (CMC) 105 % of control | [14] 100 % of control | dose: 100.0 mg/kg/injection, schedule: Q01DX009 (ip), vehicle: carboxymethylcellulose (CMC) 100 % of control and 90 % of control | dose: 100.0 mg/kg/injection, schedule: Q04DX002 (ip), vehicle: carboxymethylcellulose (CMC) 98 % of control and 107 % of control | dose: 100.0 mg/kg/injection, schedule: Q04DX003 (ip), vehicle: carboxymethylcellulose (CMC) 110 % of control | [15] 100 % of control | dose: 200.0 mg/kg/injection, schedule: Q01DX009 (ip), vehicle: carboxymethylcellulose (CMC) 93 % of control and 108 % of control | dose: 200.0 mg/kg/injection, schedule: Q04DX002 (ip), vehicle: carboxymethylcellulose (CMC) 97 % of control and 113 % of control | dose: 200.0 mg/kg/injection, schedule: Q04DX003 (ip), vehicle: carboxymethylcellulose (CMC) 96 % of control | dose: 400.0 mg/kg/injection, schedule: Q04DX002 (ip), vehicle: carboxymethylcellulose (CMC) 98 % of control and 90 % of control
